Activity calls are given as the source filed them. No cut-off for these calls is given here.
Key:
HepG2 = assay: Antiproliferative activity against human HepG2 cells after 48 hrs by MTT assay; type: functional, cell-based; conditions: HepG2, 48 h
A549 [1] = assay: Antiproliferative activity against human A549 cells after 48 hrs by MTT assay; type: functional, cell-based; conditions: A549, 48 h
[2] = molecular target: Epidermal growth factor receptor (Homo sapiens, UniProt P00533); assay: Inhibition of recombinant EGFR kinase cytoplasmic domain (unknown origin) expressed in baculovirus expression vector-infected insect sf9 cells assessed as level of autophosphorylation after 10 mins by DELFIA/time-resolved fluorometry
Chain of Epidermal growth factor receptor (P00533 whole entry, the tested form may be a part): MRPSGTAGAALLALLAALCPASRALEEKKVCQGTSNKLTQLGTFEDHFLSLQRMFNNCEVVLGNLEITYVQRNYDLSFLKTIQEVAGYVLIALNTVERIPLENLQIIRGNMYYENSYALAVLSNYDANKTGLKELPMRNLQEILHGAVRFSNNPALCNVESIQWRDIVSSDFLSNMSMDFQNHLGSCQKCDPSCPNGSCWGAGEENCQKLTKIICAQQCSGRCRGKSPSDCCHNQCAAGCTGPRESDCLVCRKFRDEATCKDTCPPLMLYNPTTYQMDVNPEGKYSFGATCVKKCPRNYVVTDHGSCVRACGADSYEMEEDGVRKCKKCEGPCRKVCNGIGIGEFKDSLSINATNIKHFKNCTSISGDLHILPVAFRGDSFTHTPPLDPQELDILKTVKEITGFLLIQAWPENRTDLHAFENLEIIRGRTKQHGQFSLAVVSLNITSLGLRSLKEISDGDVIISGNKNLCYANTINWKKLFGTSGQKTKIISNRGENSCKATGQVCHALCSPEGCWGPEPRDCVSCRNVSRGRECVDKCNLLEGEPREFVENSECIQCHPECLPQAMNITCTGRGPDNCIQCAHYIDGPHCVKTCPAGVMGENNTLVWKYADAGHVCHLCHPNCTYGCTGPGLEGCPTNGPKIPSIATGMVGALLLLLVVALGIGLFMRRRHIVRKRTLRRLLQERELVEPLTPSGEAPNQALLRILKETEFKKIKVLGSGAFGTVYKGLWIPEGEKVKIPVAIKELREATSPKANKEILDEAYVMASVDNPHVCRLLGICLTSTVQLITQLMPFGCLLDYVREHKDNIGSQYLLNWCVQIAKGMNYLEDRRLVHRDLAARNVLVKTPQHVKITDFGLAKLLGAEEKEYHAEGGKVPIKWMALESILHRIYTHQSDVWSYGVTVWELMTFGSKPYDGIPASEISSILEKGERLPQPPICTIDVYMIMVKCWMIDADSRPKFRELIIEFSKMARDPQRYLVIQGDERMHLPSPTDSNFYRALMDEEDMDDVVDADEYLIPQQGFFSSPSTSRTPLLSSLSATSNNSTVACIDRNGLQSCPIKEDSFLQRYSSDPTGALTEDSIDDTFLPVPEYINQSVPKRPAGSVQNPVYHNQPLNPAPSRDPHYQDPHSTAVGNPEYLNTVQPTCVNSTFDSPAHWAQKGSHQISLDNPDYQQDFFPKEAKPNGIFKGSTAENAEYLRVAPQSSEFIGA

A549 [3] = assay: Induction of apoptosis in human A549 cells assessed as nuclear fragmentation after 24 hrs by Hoechst 33258 staining-based fluorescence microscopy relative to control; type: functional, cell-based
A549 [4] = assay: Induction of apoptosis in human A549 cells assessed as nuclear fragmentation at 5 to 20 uM after 24 hrs by Hoechst 33258 staining-based fluorescence microscopy relative to control; type: functional, cell-based
A549 [5] = assay: Induction of apoptosis in human A549 cells assessed as nuclear condensation after 24 hrs by Hoechst 33258 staining-based fluorescence microscopy relative to control; type: functional, cell-based
A549 [6] = assay: Induction of apoptosis in human A549 cells assessed as nuclear condensation at 5 to 20 uM after 24 hrs by Hoechst 33258 staining-based fluorescence microscopy relative to control; type: functional, cell-based
A549 [7] = assay: Induction of apoptosis in human A549 cells assessed as nuclear convolution and budding off into several fragments after 24 hrs by Hoechst 33258 staining-based fluorescence microscopy relative to control; type: functional, cell-based
A549 [8] = assay: Induction of apoptosis in human A549 cells assessed as nuclear convolution and budding off into several fragments at 5 to 20 uM after 24 hrs by Hoechst 33258 staining-based fluorescence microscopy relative to control; type: functional, cell-based

Structure (SMILES)	IC50 (HepG2)	IC50 (A549 [1])	IC50 [2]	also measured
O=C(/C=C/c1ncc2ccccc2n1)Nc1ccc2ncnc(Nc3cccc(Cl)c3)c2c1	7.79 µM	3.35 µM	–	–
O=C(/C=C/c1ccc(Br)s1)Nc1ccc2ncnc(Nc3cccc(Cl)c3)c2c1	8.85 µM	1.58 µM	2.4 µM	–
CSCCCNc1ccc2ncnc(Nc3cccc(Cl)c3)c2c1	8.92 µM	3.82 µM	5.1 µM	–
Clc1cccc(Nc2ncnc3ccc(NCc4ncc5ccccc5n4)cc23)c1	5.65 µM	1.71 µM	–	–
O=C(/C=C/c1cccc(Br)n1)Nc1ccc2ncnc(Nc3cccc(Cl)c3)c2c1	10.7 µM	4.16 µM	–	–
O=C(/C=C/c1cccs1)Nc1ccc2ncnc(Nc3cccc(Cl)c3)c2c1	10.4 µM	9.31 µM	8.8 µM	–
Clc1cccc(Nc2ncnc3ccc(NCc4ccc(Br)s4)cc23)c1	3.11 µM	0.82 µM	1.5 µM	Activity (A549 [3]): Dose-dependent effect; Activity (A549 [4]): Active; Activity (A549 [5]): Dose-dependent effect; Activity (A549 [6]): Active; Activity (A549 [7]): Dose-dependent effect; Activity (A549 [8]): Active
Clc1cccc(Nc2ncnc3ccc(NCc4cccs4)cc23)c1	3.58 µM	2.08 µM	3.4 µM	–
O=C(/C=C/c1cccnc1Cl)Nc1ccc2ncnc(Nc3cccc(Cl)c3)c2c1	4.42 µM	2.92 µM	3.6 µM	–
O=C(/C=C/c1c[nH]c2ccccc12)Nc1ccc2ncnc(Nc3cccc(Cl)c3)c2c1	7.02 µM	3.67 µM	–	–
Clc1cccc(Nc2ncnc3ccc(NCc4cccnc4)cc23)c1	4.14 µM	2.67 µM	–	–
CCCCNc1ccc2ncnc(Nc3cccc(Cl)c3)c2c1	7.85 µM	4.01 µM	–	–
Cc1cccc(/C=C/C(=O)Nc2ccc3ncnc(Nc4cccc(Cl)c4)c3c2)n1	4.82 µM	2.16 µM	–	–
Clc1cccc(Nc2ncnc3ccc(NCc4c[nH]c5ccccc45)cc23)c1	5.26 µM	2.33 µM	–	–
O=C(/C=C/c1cccnc1)Nc1ccc2ncnc(Nc3cccc(Cl)c3)c2c1	9.12 µM	4.32 µM	4.7 µM	–
Clc1cccc(Nc2ncnc3ccc(NCc4cccc(Br)n4)cc23)c1	3.87 µM	2.95 µM	4.1 µM	–
Cc1cccc(CNc2ccc3ncnc(Nc4cccc(Cl)c4)c3c2)n1	3.63 µM	1.06 µM	–	–

From ChEMBL document CHEMBL2424555, “Discovery of novel 4-anilinoquinazoline derivatives as potent inhibitors of epidermal growth factor receptor with antitumor activity” (Bioorg Med Chem, 2013)
